This passage reports IC50 results from US20250236608A1, “EGFR INHIBITORS” (Blueprint Medicines Corporation, priority 2022, published 2025).

For experiment [1], the target named is EGFR L858R (Homo sapiens (Human), UniProt P00533, L858R). Description: Biochemical EGFR inhibition assay, EGFR L858R. The following applies: Caliper mobility shift; 1.0 mM ATP or ATP Km; read-out: Enz EGFR_L858R IC50.
The target in experiment [2] is EGFR (d746-750) (Homo sapiens (Human), UniProt P00533, DEL746-750). Description: Biochemical EGFR inhibition assay, EGFR (d746-750). The settings on record: Caliper mobility shift; 1.0 mM ATP or ATP Km; read-out: Enz EGFR_Exon19-del746-750 IC50.
In experiment [3] the target is pEGFR (Tyr1068) in PC-9 cells (Ex19Del) (Homo sapiens (Human), UniProt P00533, DEL746-750). The experiment can be described thus: PC-9 pEGFR AlphaLISA assay. The format is cell-based. The following applies: 4 hours incubation, p-EGFR (Tyr1068) AlphaLISA, read-out: Ext pEGFR_PC-9 Ex19Del IC50. In a few lines:
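Compounds are added in ten 4-fold dilutions to adherent cells grown in serum-containing (10% FBS) phenol-free DMEM and left for 4 hours at 37° C. Phosphorylated receptor in lysates is quantified by bead-based AlphaLISA. IC50 values derive from inhibition plotted against log dose.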

Each structure is given as a SMILES string.

A word on the IC50: it is the concentration that inhibits the measured activity by half.

Chain of EGFR (d746-750) (P00533 other isoform, or with tags, fused parts or gaps del 1-694/del 746-750 limits assumed): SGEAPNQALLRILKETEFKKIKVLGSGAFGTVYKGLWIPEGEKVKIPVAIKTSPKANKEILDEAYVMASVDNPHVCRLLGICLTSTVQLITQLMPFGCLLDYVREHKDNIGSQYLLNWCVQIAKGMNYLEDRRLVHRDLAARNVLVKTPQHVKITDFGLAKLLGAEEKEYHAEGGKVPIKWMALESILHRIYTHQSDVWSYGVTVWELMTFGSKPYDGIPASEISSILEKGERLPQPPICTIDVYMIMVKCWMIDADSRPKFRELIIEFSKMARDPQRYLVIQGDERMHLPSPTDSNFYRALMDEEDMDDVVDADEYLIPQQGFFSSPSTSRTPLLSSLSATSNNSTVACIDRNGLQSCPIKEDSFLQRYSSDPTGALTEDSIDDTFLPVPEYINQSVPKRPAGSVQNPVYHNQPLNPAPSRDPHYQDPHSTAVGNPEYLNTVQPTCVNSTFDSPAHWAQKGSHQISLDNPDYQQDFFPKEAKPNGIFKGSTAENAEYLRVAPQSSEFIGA
Chain of EGFR L858R (P00533 25-1210 L858R): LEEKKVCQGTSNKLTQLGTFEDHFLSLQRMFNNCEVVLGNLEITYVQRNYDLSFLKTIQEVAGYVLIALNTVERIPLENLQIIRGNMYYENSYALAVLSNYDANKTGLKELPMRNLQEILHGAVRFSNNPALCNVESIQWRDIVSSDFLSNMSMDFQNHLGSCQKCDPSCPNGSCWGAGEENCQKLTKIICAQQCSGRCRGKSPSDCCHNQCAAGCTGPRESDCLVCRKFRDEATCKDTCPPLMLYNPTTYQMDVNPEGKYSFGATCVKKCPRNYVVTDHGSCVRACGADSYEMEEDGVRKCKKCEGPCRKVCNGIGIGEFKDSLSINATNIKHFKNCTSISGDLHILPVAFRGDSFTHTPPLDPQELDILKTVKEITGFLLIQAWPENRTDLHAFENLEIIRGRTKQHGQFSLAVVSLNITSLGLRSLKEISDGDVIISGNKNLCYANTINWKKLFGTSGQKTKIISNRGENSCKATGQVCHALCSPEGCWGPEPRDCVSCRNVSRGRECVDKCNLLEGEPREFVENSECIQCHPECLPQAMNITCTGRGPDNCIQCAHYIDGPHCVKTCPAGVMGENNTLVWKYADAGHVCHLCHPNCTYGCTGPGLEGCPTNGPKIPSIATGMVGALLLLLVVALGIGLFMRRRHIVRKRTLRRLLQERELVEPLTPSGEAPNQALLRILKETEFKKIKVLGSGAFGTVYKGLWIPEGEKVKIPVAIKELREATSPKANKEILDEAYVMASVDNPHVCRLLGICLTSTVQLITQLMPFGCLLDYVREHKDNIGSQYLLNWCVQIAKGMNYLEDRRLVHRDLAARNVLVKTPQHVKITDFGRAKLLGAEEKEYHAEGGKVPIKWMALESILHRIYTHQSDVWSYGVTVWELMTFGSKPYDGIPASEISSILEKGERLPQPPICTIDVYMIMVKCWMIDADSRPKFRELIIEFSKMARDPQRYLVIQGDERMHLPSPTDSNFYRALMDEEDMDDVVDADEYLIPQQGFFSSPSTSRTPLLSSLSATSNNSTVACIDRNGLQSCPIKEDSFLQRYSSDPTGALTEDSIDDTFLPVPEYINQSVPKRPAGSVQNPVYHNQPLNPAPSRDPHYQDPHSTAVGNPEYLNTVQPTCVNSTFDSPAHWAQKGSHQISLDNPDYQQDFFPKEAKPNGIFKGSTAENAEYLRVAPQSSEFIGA
Chain of pEGFR (Tyr1068) in PC-9 cells (Ex19Del) (P00533 other isoform, or with tags, fused parts or gaps del 746-750): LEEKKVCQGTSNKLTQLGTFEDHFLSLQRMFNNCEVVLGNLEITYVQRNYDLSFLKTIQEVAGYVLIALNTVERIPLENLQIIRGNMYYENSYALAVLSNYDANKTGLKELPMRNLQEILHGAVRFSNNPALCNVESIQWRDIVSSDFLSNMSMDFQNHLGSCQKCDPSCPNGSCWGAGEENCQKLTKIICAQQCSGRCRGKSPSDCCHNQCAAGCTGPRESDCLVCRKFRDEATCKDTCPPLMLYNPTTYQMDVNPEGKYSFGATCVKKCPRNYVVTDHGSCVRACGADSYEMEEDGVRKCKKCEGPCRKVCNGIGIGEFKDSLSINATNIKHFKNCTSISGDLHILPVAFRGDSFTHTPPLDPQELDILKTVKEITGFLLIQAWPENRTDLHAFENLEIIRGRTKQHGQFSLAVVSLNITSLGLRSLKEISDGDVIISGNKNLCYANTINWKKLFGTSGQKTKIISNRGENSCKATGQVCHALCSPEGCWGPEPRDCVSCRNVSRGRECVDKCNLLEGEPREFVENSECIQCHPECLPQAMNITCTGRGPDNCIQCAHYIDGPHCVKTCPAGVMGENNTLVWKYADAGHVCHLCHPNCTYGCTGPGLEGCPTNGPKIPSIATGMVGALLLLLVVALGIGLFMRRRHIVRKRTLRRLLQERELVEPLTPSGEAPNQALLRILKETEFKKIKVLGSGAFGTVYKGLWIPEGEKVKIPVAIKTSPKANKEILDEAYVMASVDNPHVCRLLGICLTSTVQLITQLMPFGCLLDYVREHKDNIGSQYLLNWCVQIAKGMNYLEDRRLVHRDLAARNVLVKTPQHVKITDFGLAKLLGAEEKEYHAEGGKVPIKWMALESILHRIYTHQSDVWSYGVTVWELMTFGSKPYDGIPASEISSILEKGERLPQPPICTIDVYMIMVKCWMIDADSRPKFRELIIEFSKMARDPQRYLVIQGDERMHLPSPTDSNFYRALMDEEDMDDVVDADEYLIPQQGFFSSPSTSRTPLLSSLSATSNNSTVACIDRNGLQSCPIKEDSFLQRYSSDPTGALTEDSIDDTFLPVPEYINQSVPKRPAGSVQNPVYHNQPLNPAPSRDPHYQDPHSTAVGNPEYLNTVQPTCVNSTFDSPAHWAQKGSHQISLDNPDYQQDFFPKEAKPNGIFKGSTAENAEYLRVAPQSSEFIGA

For `COc1cc2ncnc(-c3cn(C)nc3-c3ccccc3)c2cc1NC(=O)c1c(C)cccc1F` [Example 201, 2-fluoro-N-(7-methoxy-4-(1-methyl-3-phenyl-1H-pyrazol-4-yl)quinazolin-6-yl)-6-methylbenzamide], the IC50 in experiment [1] is 2 nM; in experiment [2] it was 1.4 nM; in experiment [3], 3.8 nM.

As to `CCn1ccc(C(=O)Nc2cc3c(-c4cn(C)nc4-c4ccccc4)ncnc3cc2OC)n1` [Example 202, 1-ethyl-N-(7-methoxy-4-(1-methyl-3-phenyl-1H-pyrazol-4-yl)quinazolin-6-yl)-1H-pyrazole-3-carboxamide], the IC50 in experiment [1] came to 0.9 nM; in experiment [2], 0.6 nM; in experiment [3], 0.6 nM.

Regarding `COc1cc2ncnc(-c3cn(C)nc3-c3ccccc3)c2cc1NC(=O)c1cnn(CC(F)(F)F)c1` [Example 203, N-(7-methoxy-4-(1-methyl-3-phenyl-1H-pyrazol-4-yl)quinazolin-6-yl)-1-(2,2,2-trifluoroethyl)-1H-pyrazole-4-carboxamide], the IC50 in experiment [1] is 2.1 nM; in experiment [2] it was 1.1 nM; in experiment [3] it was 4.9 nM.

In the case of `COc1cc2ncnc(-c3cn(C)nc3-c3ccccc3)c2cc1NC(=O)c1ccnn1C(F)(F)F` [Example 204, N-(7-methoxy-4-(1-methyl-3-phenyl-1H-pyrazol-4-yl)quinazolin-6-yl)-1-(trifluoromethyl)-1H-pyrazole-5-carboxamide], the IC50 is 2.1 nM in experiment [1], 1.3 nM in experiment [2] and 1.4 nM in experiment [3].

In the case of `COc1cc2ncnc(-c3cn(C)nc3-c3ccccc3)c2cc1NC(=O)c1ccn(C(C)C)n1` [Example 205, 1-isopropyl-N-(7-methoxy-4-(1-methyl-3-phenyl-1H-pyrazol-4-yl)quinazolin-6-yl)-1H-pyrazole-3-carboxamide], the IC50 in experiment [1] was 1.2 nM; in experiment [2], 0.8 nM; in experiment [3], 0.8 nM.

As for `COc1cc2ncnc(-c3cn(C)nc3-c3ccccc3)c2cc1NC(=O)c1cnc(C)s1` [Example 206, N-(7-methoxy-4-(1-methyl-3-phenyl-1H-pyrazol-4-yl)quinazolin-6-yl)-2-methylthiazole-5-carboxamide], the IC50 in experiment [1] turned out to be 0.8 nM; in experiment [2] it was 0.4 nM; in experiment [3], 0.5 nM.

Turning to `COc1cc2ncnc(-c3cn(C)nc3-c3ccccc3)c2cc1NC(=O)c1scnc1C` [Example 207, N-(7-methoxy-4-(1-methyl-3-phenyl-1H-pyrazol-4-yl)quinazolin-6-yl)-4-methylthiazole-5-carboxamide], the IC50 turned out to be 1.4 nM in experiment [1], 0.8 nM in experiment [2] and 1 nM in experiment [3].

In the case of `COc1cc2ncnc(-c3cn(C)nc3-c3ccccc3)c2cc1NC(=O)c1cnn(C(C)C)c1` [Example 208, 1-isopropyl-N-(7-methoxy-4-(1-methyl-3-phenyl-1H-pyrazol-4-yl)quinazolin-6-yl)-1H-pyazole-4-carboxamide], the figures for the IC50 in experiment [1], in experiment [2] and in experiment [3] were 1.1 nM, 0.7 nM and 1.8 nM, respectively.

Regarding `COc1cc2ncnc(-c3cn(C)nc3-c3ccccc3)c2cc1NC(=O)c1cnc(C2CC2)s1` [Example 209, 2-cyclopropyl-N-(7-methoxy-4-(1-methyl-3-phenyl-1H-pyrazol-4-yl)quinazolin-6-yl)thiazole-5-carboxamide], the figures for the IC50 in experiment [1], in experiment [2] and in experiment [3] were 1.5 nM, 0.8 nM and 0.9 nM, respectively.

For the compound `COc1cc2ncnc(-c3cn(C)nc3-c3ccccc3)c2cc1NC(=O)[C@@H]1CCN(C)C1` [Example 210, (R)-N-(7-methoxy-4-(1-methyl-3-phenyl-1H-pyrazol-4-yl)quinazolin-6-yl)-1-methylpyrrolidine-3-carboxamide], the IC50 was 1.1 nM in experiment [1], 0.6 nM in experiment [2] and 1.7 nM in experiment [3].
